Data from patent US6737383B1, “Herbicidal oxadiazolidines” (priority 1999, dated 2004).

Tests used:
cocklebur = assay: Test B pre/postemergence cocklebur; type: in vivo, Xanthium strumarium; conditions: for Plant response rating, Cocklebur: Postemergence; for Cocklebur plant response rating: scale of 0 to 10 where 0 is no effect and 10 is complete control
Summary of the method: (§1)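 Herbicidal effect was estimated by eye on a ten-point control scale after plants spent twelve to sixteen days in a greenhouse following soil or foliar treatment. Foliar sprays targeted plants at one to four leaves; all doses were formulated in a non-phytotoxic solvent with surfactant.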

soybean = assay: Test B pre/postemergence soybean; type: in vivo, Glycine max; conditions: for Plant response rating, Soybean: Postemergence; for Soybean plant response rating: scale of 0 to 10 where 0 is no effect and 10 is complete control
Summary of the method: as §1

bedstraw = assay: Test B pre/postemergence bedstraw; type: in vivo, Galium aparine; conditions: for Plant response rating, Bedstraw: Postemergence
Summary of the method: as §1

surinam grass = assay: Test B pre/postemergence surinam grass; type: in vivo, Brachiaria decumbens; conditions: for Plant response rating, B. signalgrass: Postemergence
Summary of the method: as §1

wheat = assay: Test B pre/postemergence wheat; type: in vivo, Triticum aestivum; conditions: for Plant response rating, Wheat: Postemergence; for Wheat plant response rating: scale of 0 to 10 where 0 is no effect and 10 is complete control
Summary of the method: as §1

pigweed = assay: Test B pre/postemergence pigweed; type: in vivo, Amaranthus retroflexus; conditions: for Plant response rating, Redroot pigweed: Postemergence; for Redroot pigweed plant response rating: scale of 0 to 10 where 0 is no effect and 10 is complete control
Summary of the method: as §1

smallflower flatsedge = assay: Test B flood test smallflower flatsedge; type: in vivo, Cyperus difformis; conditions: Pre-emergence
Summary of the method: (§2)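 Each value is a visual injury score relative to controls, with 10 meaning complete control and 0 no effect. Evaluation took place twelve to sixteen days after the 2-leaf-stage plants were treated and kept in the greenhouse.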

rape = assay: Test B pre/postemergence rape; type: in vivo, Brassica napus; conditions: for Plant response rating, Rape: Postemergence; for Rape plant response rating: scale of 0 to 10 where 0 is no effect and 10 is complete control
Summary of the method: as §1

velvetleaf = assay: Test B pre/postemergence velvetleaf; type: in vivo, Abutilon theophrasti; conditions: for Plant response rating, Velvetleaf: Postemergence; for Velvetleaf plant response rating: scale of 0 to 10 where 0 is no effect and 10 is complete control
Summary of the method: as §1

morningglory = assay: Test B pre/postemergence morningglory; type: in vivo, Ipomoea hederacea; conditions: for Plant response rating, Morningglory: Postemergence; for Morningglory plant response rating: scale of 0 to 10 where 0 is no effect and 10 is complete control
Summary of the method: as §1

wild oat = assay: Test B pre/postemergence wild oat; type: in vivo, Avena fatua; conditions: for Plant response rating, Wild oats: Postemergence; for Wild oats plant response rating: scale of 0 to 10 where 0 is no effect and 10 is complete control
Summary of the method: as §1

rice = assay: Test B flood test rice; type: in vivo, Oryza sativa; conditions: Pre-emergence
Summary of the method: as §2

purple nutsedge = assay: Test B pre/postemergence purple nutsedge; type: in vivo, Cyperus rotundus; conditions: for Plant response rating, Nutsedge: Postemergence; for Nutsedge plant response rating: scale of 0 to 10 where 0 is no effect and 10 is complete control
Summary of the method: as §1

corn = assay: Test B pre/postemergence corn; type: in vivo, Zea mays; conditions: for Plant response rating, Corn: Postemergence; for Corn plant response rating: scale of 0 to 10 where 0 is no effect and 10 is complete control
Summary of the method: as §1

sugar beet = assay: Test B pre/postemergence sugar beet; type: in vivo, Beta vulgaris; conditions: for Plant response rating, Sugarbeets: Postemergence; for Sugarbeets plant response rating: scale of 0 to 10 where 0 is no effect and 10 is complete control
Summary of the method: as §1

crabgrass = assay: Test B pre/postemergence crabgrass; type: in vivo, Digitaria sanguinalis; conditions: for Plant response rating, Crabgrass: Postemergence; for Crabgrass plant response rating: scale of 0 to 10 where 0 is no effect and 10 is complete control
Summary of the method: as §1

bamyardgrass = assay: Test B flood test barnyardgrass; type: in vivo, Echinochloa crus-galli; conditions: Pre-emergence
Summary of the method: as §2

duck salad = assay: Test B flood test duck salad; type: in vivo, Heteranthera limosa; conditions: Pre-emergence
Summary of the method: as §2

blackgrass = assay: Test B pre/postemergence blackgrass; type: in vivo, Alopecurus myosuroides; conditions: for Plant response rating, Blackgrass: Postemergence
Summary of the method: as §1

giant foxtail = assay: Test B pre/postemergence giant foxtail; type: in vivo, Setaria faberii; conditions: for Plant response rating, Giant foxtail: Postemergence; for Giant foxtail plant response rating: Preemergence, scale of 0 to 10 where 0 is no effect and 10 is complete control
Summary of the method: as §1

[1] = Rate 125 g/ha, scale 0 to 10, 0 is no effect, 10 is complete control
[2] = Rate 500 g/ha, scale 0 to 10, 0 no effect, 10 complete control
[3] = Preemergence, Rate 500 g/ha, scale of 0 to 10 where 0 is no effect and 10 is complete control
[4] = Preemergence, Rate 250 g/ha, scale of 0 to 10 where 0 is no effect and 10 is complete control
[5] = Rate 250 g/ha, scale of 0 to 10 where 0 is no effect and 10 is complete control
[6] = Rate 1000 g/ha, scale 0 to 10 (0 no effect, 10 complete control)
[7] = Rate 125 g/ha, flood test species, scale 0 to 10 where 0 is no effect and 10 is complete control
[8] = Rate 250 g/ha, flood-test species, scale 0 to 10, 0 is no effect, 10 is complete control
[9] = Rate 500 g/ha, flood test species, scale 0 to 10 (0 no effect, 10 complete control)

CCOC(=O)C(C)N(C(=O)n1oc(=O)n(-c2c(C)cccc2OC)c1=O)c1ccc(F)cc1 (centres unmarked) [Compound 331]
0: Plant response rating, Cocklebur (cocklebur; [1]) | Cocklebur plant response rating (0 to 10 scale) (cocklebur; Preemergence, Rate 125 g/ha) | Cocklebur plant response rating (cocklebur; Preemergence, Rate 250 g/ha) | Cocklebur plant response rating (cocklebur; Preemergence, Rate 500 g/ha) | Plant response rating, Cocklebur (cocklebur; [2]) | Plant response rating, Soybean (soybean; [1]) | Soybean plant response rating (0 to 10 scale) (soybean; Preemergence, Rate 125 g/ha) | Soybean plant response rating (soybean; Preemergence, Rate 250 g/ha) | Soybean plant response rating (soybean; Preemergence, Rate 500 g/ha) | Plant response rating, Soybean (soybean; [2]) | Plant response rating, Bedstraw (bedstraw; [1]) | Bedstraw plant response rating (bedstraw; [3]) | Plant response rating, Bedstraw (bedstraw; [2]) | Plant response rating, B. signalgrass (surinam grass; [1]) | B. signalgrass plant response rating (0 to 10 scale, 0 is no effect, 10 is complete control) (surinam grass; Preemergence, Rate 125 g/ha) | B. signalgrass plant response rating (surinam grass; [4]) | B. signalgrass plant response rating (surinam grass; [3]) | Plant response rating, B. signalgrass (surinam grass; [5]) | Plant response rating, B. signalgrass (surinam grass; [2]) | Plant response rating, Wheat (wheat; [1]) | Wheat plant response rating (0 to 10 scale) (wheat; Preemergence, Rate 125 g/ha) | Wheat plant response rating (wheat; Preemergence, Rate 250 g/ha) | Wheat plant response rating (wheat; Preemergence, Rate 500 g/ha) | Plant response rating, Wheat (wheat; [2]) | Plant response rating, Redroot pigweed (pigweed; [1]) | Redroot pigweed plant response rating (0 to 10 scale) (pigweed; Preemergence, Rate 125 g/ha) | Redroot pigweed plant response rating (pigweed; Preemergence, Rate 250 g/ha) | Redroot pigweed plant response rating (pigweed; Preemergence, Rate 500 g/ha) | Plant response rating, Redroot pigweed (pigweed; [2]) | S. Flatsedge plant response rating (smallflower flatsedge; [6]) | S. Flatsedge plant response rating (smallflower flatsedge; [7]) | S. Flatsedge plant response rating (smallflower flatsedge; [8]) | S. Flatsedge plant response rating (smallflower flatsedge; [9]) | Plant response rating, Rape (rape; [1]) | Rape plant response rating (0 to 10 scale) (rape; Preemergence, Rate 125 g/ha) | Rape plant response rating (rape; Preemergence, Rate 250 g/ha) | Rape plant response rating (rape; Preemergence, Rate 500 g/ha) | Plant response rating, Rape (rape; [2]) | Plant response rating, Velvetleaf (velvetleaf; [1]) | Velvetleaf plant response rating (0 to 10 scale) (velvetleaf; Preemergence, Rate 125 g/ha) | Velvetleaf plant response rating (velvetleaf; Preemergence, Rate 250 g/ha) | Velvetleaf plant response rating (velvetleaf; Preemergence, Rate 500 g/ha) | Plant response rating, Velvetleaf (velvetleaf; [2]) | Plant response rating, Morningglory (morningglory; [1]) | Morningglory plant response rating (0 to 10 scale) (morningglory; Preemergence, Rate 125 g/ha) | Morningglory plant response rating (morningglory; Preemergence, Rate 250 g/ha) | Morningglory plant response rating (morningglory; Preemergence, Rate 500 g/ha) | Plant response rating, Morningglory (morningglory; [2]) | Plant response rating, Wild oats (wild oat; [1]) | Wild oats plant response rating (0 to 10 scale) (wild oat; Preemergence, Rate 125 g/ha) | Wild oats plant response rating (wild oat; Preemergence, Rate 250 g/ha) | Wild oats plant response rating (wild oat; Preemergence, Rate 500 g/ha) | Plant response rating, Wild oats (wild oat; [2]) | Rice plant response rating (rice; [6]) | Rice plant response rating (rice; [7]) | Rice plant response rating (rice; [8]) | Rice plant response rating (rice; [9]) | Plant response rating, Nutsedge (purple nutsedge; [1]) | Nutsedge plant response rating (0 to 10 scale) (purple nutsedge; Preemergence, Rate 125 g/ha) | Nutsedge plant response rating (purple nutsedge; Preemergence, Rate 250 g/ha) | Nutsedge plant response rating (purple nutsedge; Preemergence, Rate 500 g/ha) | Plant response rating, Nutsedge (purple nutsedge; [2]) | Plant response rating, Corn (corn; [1]) | Corn plant response rating (0 to 10 scale) (corn; Preemergence, Rate 125 g/ha) | Corn plant response rating (corn; Preemergence, Rate 250 g/ha) | Corn plant response rating (corn; Preemergence, Rate 500 g/ha) | Plant response rating, Corn (corn; [2]) | Plant response rating, Sugarbeets (sugar beet; [1]) | Sugarbeets plant response rating (0 to 10 scale) (sugar beet; Preemergence, Rate 125 g/ha) | Sugarbeets plant response rating (sugar beet; Preemergence, Rate 250 g/ha) | Sugarbeets plant response rating (sugar beet; Preemergence, Rate 500 g/ha) | Plant response rating, Sugarbeets (sugar beet; [2]) | Plant response rating, Crabgrass (crabgrass; [1]) | Crabgrass plant response rating (0 to 10 scale) (crabgrass; Preemergence, Rate 125 g/ha) | Crabgrass plant response rating (crabgrass; Preemergence, Rate 250 g/ha) | Crabgrass plant response rating (crabgrass; Preemergence, Rate 500 g/ha) | Plant response rating, Crabgrass (crabgrass; [2]) | Barnyardgrass plant response rating (bamyardgrass; [6]) | Barnyardgrass plant response rating (bamyardgrass; [7]) | Barnyardgrass plant response rating (bamyardgrass; [8]) | Barnyardgrass plant response rating (bamyardgrass; [9]) | Ducksalad plant response rating (duck salad; [6]) | Ducksalad plant response rating (duck salad; [7]) | Ducksalad plant response rating (duck salad; [8]) | Ducksalad plant response rating (duck salad; [9]) | Plant response rating, Blackgrass (blackgrass; [1]) | Blackgrass plant response rating (0 to 10 scale) (blackgrass; Preemergence, Rate 125 g/ha) | Blackgrass plant response rating (blackgrass; [4]) | Blackgrass plant response rating (blackgrass; [3]) | Plant response rating, Blackgrass (blackgrass; [5]) | Plant response rating, Blackgrass (blackgrass; [2]) | Plant response rating, Giant foxtail (giant foxtail; [1]) | Giant foxtail plant response rating (giant foxtail; Rate 250 g/ha) | Giant foxtail plant response rating (giant foxtail; Rate 500 g/ha) | Plant response rating, Giant foxtail (giant foxtail; [2])
